Test results reported in ChEMBL document CHEMBL6134779, “Design of Proteolytic-Resistant Antifungal Peptides by Utilizing Minimum d-Amino Acid Ratios” (J Med Chem, 2024).
≈ marks a conversion by molar mass, not a printed value. Calls of active or inactive are those of the source. The calls are words filed in the database; no cut-off is given here.

Columns and labels:
Candida albicans [1] = assay: Antifungal activity against Candida albicans CGMCC 2.2086 assessed as inhibition of fungal growth incubated for 2 to 4 hrs in presence of 100% serum; assay type: functional, organism-based; conditions: time 2-4 hrs
Candida albicans [2] = assay: Antifungal activity against Fluconazole-resistant Candida albicans 58288 assessed as inhibition of fungal growth incubated for 48 hrs; assay type: functional
Candida albicans [3] = assay: Induction of ROS generation in Candida albicans CGMCC 2.2086 measured after 60 mins by […] dye based fluorescence assay; assay type: functional, organism-based; conditions: dose 0.5-128 µM
Candida albicans [4] = assay: Antifungal activity against Candida albicans CGMCC 2.2086 assessed as inhibition of fungal growth incubated for 48 hrs in presence of KCl; assay type: functional
Candida albicans [5] = assay: Antifungal activity against Candida albicans SP3931 assessed as inhibition of fungal growth incubated for 48 hrs; assay type: functional
Candida albicans [6] = assay: Antifungal activity against Candida albicans SP3876 assessed as inhibition of fungal growth incubated for 48 hrs; assay type: functional
Candida tropicalis = assay: Antifungal activity against Candida tropicalis CGMCC 2.1975 assessed as inhibition of fungal growth incubated for 48 hrs; assay type: functional
[7] = Stability of the compound in MgCl2 assessed as change in secondary structure by CD spectra analysis; assay type: physicochemical
Candida albicans [8] = assay: Antifungal activity against Candida albicans CGMCC 2.2086 assessed as inhibition of fungal growth incubated for 48 hrs in presence of NaCl; assay type: functional
Candida albicans [9] = assay: Induction of morphological changes in Candida albicans CGMCC 2.2086 at 1X MIC measured after 60 mins by TEM analysis; assay type: functional, organism-based
Candida albicans [10] = assay: Antifungal activity against Candida albicans SP3903 assessed as inhibition of fungal growth incubated for 48 hrs; assay type: functional
Candida albicans [11] = assay: Antifungal activity against Candida albicans CGMCC 2.2086 assessed as inhibition of fungal growth incubated for 2 hrs in presence of protease K; assay type: functional, organism-based
[12] = Stability of the compound in KCl assessed as change in secondary structure by CD spectra analysis; assay type: physicochemical
Candida albicans [13] = assay: Antifungal activity against Candida albicans CGMCC 2.2086 assessed as inhibition of fungal growth incubated for 2 hrs in presence of trypsin; assay type: functional, organism-based
Candida parapsilosis = assay: Antifungal activity against Candida parapsilosis CGMCC 2.3989 assessed as inhibition of fungal growth incubated for 48 hrs; assay type: functional; conditions: Lodderomyces parapsilosis
Candida albicans [14] = assay: Antifungal activity against Candida albicans CGMCC 2.2086 assessed as inhibition of fungal growth incubated for 48 hrs; assay type: functional
[15] = Hemolytic activity in human red blood cells assessed as hemolysis incubated for 1 hr; assay type: toxicity, cell-based, Erythrocyte
Candida albicans [16] = assay: Antifungal activity against Candida albicans CGMCC 2.2086 assessed as inhibition of fungal growth incubated for 2 hrs in presence of chymotrypsin; assay type: functional, organism-based
Candida albicans [17] = assay: Antifungal activity against Candida albicans CGMCC 2.2086 assessed as inhibition of fungal growth incubated for 48 hrs in presence of NH4Cl; assay type: functional
Candida albicans [18] = assay: Induction of Candida albicans CGMCC 2.2086 cell wall permeabilization at 128 uM by NPN probe based assay relative to control; assay type: functional
Candida albicans [19] = assay: Antifungal activity against Fluconazole-resistant Candida albicans 56214 assessed as inhibition of fungal growth incubated for 48 hrs; assay type: functional
Candida albicans [20] = assay: Antibiofilm activity against Candida albicans CGMCC 2.2086 assessed as inhibition of biofilm formation at antifungal MIC measured after 48 hrs by crystal violet staining based assay; assay type: functional
Cell membrane [21] = assay: Disruption of Candida albicans CGMCC 2.2086 cell membrane at 1X MIC measured after 1 hr by SYTO9/propidium iodide staining based fluorescence microscopic analysis; assay type: subcellular
Candida albicans [22] = assay: Antifungal activity against Candida albicans CGMCC 2.2086 assessed as inhibition of fungal growth incubated for 48 hrs in presence of FeCl3; assay type: functional
[23] = Stability of the compound in FeCl3 assessed as change in secondary structure by CD spectra analysis; assay type: physicochemical
[24] = Stability of the compound in NaCl assessed as change in secondary structure by CD spectra analysis; assay type: physicochemical
Cell membrane [25] = assay: Induction of cytoplasmic membrane depolarization in Candida albicans CGMCC 2.2086 at 0.5 to 2X MIC measured up to 3600 secs by DISC3-5 dye based fluorescence assay; assay type: subcellular; conditions: time <= 3600.0 sec
[26] = Stability of the compound in CaCl2 assessed as change in secondary structure by CD spectra analysis; assay type: physicochemical
Candida albicans [27] = assay: Antifungal activity against Candida albicans SP3902 assessed as inhibition of fungal growth incubated for 48 hrs; assay type: functional
Candida albicans [28] = assay: Induction of morphological changes in Candida albicans CGMCC 2.2086 assessed as appearance of cell pits at 1X MIC measured after 60 mins by SEM analysis; assay type: functional, organism-based
Candida albicans [29] = assay: Antifungal activity against Candida albicans CGMCC 2.2086 assessed as inhibition of fungal growth incubated for 48 hrs in presence of MgCl2; assay type: functional
HEK293 = assay: Cytotoxicity against HEK293 cells assessed as cell death at 64 uM measured after 8 hrs by calcein-AM and propidium iodide Live/Dead dye staining assay; assay type: toxicity, cell-based; conditions: human, hek293, 8 h
Candida albicans [30] = assay: Antifungal activity against Candida albicans CGMCC 2.2086 assessed as inhibition of fungal growth incubated for 48 hrs in presence of CaCl2; assay type: functional
Candida albicans [31] = assay: Antifungal activity against Candida albicans 14936 assessed as inhibition of fungal growth incubated for 48 hrs; assay type: functional
[32] = Hemolytic activity in human red blood cells assessed as hemolysis rate at 512 uM incubated for 1 hr relative to control; assay type: toxicity, cell-based, Erythrocyte; conditions: read-out: Activity
[33] = Stability of the compound in NH4Cl assessed as change in secondary structure by CD spectra analysis; assay type: physicochemical
Candida albicans [34] = assay: Induction of Candida albicans CGMCC 2.2086 cell wall permeabilization by NPN probe based assay; assay type: functional, organism-based; conditions: dose 1-128 µM
Candida albicans [35] = assay: Antifungal activity against Candida albicans 17546 assessed as inhibition of fungal growth incubated for 48 hrs; assay type: functional
[36] = Stability of the compound in ZnCl2 assessed as change in secondary structure by CD spectra analysis; assay type: physicochemical
Candida albicans [37] = assay: Antifungal activity against Candida albicans CGMCC 2.2086 assessed as inhibition of fungal growth incubated for 48 hrs in presence of ZnCl2; assay type: functional
Candida albicans [38] = assay: Antifungal activity against Candida albicans 56452 assessed as inhibition of fungal growth incubated for 48 hrs; assay type: functional
Candida albicans [39] = assay: Resistance development in Candida albicans CGMCC 2.2086 assessed as fold increase in MIC after 20 passages by broth microdilution method relative to control; assay type: functional
Candida albicans [40] = assay: Resistance development in Candida albicans CGMCC 2.2086 assessed as fold increase in MIC after 30 passages by broth microdilution method relative to control; assay type: functional

## CC(C)[C@H](N)C(=O)N[C@H](C(=O)N[C@H](CCCNC(=N)N)C(=O)N[C@@H](CCCNC(=N)N)C(=O)N[C@@H](Cc1c[nH]cn1)C(=O)N[C@H](C(=O)N[C@H](C(=O)N[C@H](C(=O)N[C@H](C(=O)N[C@H](CCCNC(=N)N)C(=O)N[C@@H](CCCNC(=N)N)C(=O)N[C@@H](Cc1c[nH]cn1)C(=O)N[C@H](C(=O)N[C@H](C(=O)N[C@H](C(=O)N[C@H](C(=O)N[C@H](CCCNC(=N)N)C(=O)N[C@@H](CCCNC(=N)N)C(=O)N[C@@H](Cc1c[nH]cn1)C(=O)N[C@H](C(=O)N[C@H](C(N)=O)C(C)C)C(C)C)C(C)C)C(C)C)C(C)C)C(C)C)C(C)C)C(C)C)C(C)C)C(C)C)C(C)C
Candida albicans [1]
  growth inhibition (GI): Active; No Alterations In The Antimicrobial Activity Was Observed In Presence Of Serum
Candida albicans [2]
  MIC95: 8 µM (≈ 20.4 µg/mL)
Candida albicans [3]
  Activity: Dose-dependent-effect
Candida albicans [4]
  MIC95: 32 µM
Candida albicans [5]
  MIC95: 8 µM (≈ 20.4 µg/mL)
Candida albicans [6]
  MIC95: 8 µM (≈ 20.4 µg/mL)
Candida tropicalis
  MIC95: 4 µM (≈ 10.2 µg/mL)
[7]
  Stability: Stable
Candida albicans [8]
  MIC95: 64 µM
Candida albicans [9]
  Activity: inactive
Candida albicans [10]
  MIC95: 4 µM (≈ 10.2 µg/mL)
Candida albicans [11]
  Activity: Active
[12]
  Stability: Stable
Candida albicans [13]
  Activity: Active
Candida parapsilosis
  MIC95: 4 µM (≈ 10.2 µg/mL)
Candida albicans [14]
  MIC95: 8 µM (≈ 20.4 µg/mL)
[15]
  HC50 at 1 h: > 512 µM
Candida albicans [16]
  Activity: Active
Candida albicans [17]
  MIC95: 4 µM
Candida albicans [18]
  Activity: <=100%
Candida albicans [19]
  MIC95: 8 µM (≈ 20.4 µg/mL)
Candida albicans [20]
  inhibition (INH): 90%
Cell membrane [21]
  Activity: Active
Candida albicans [22]
  MIC95: 32 µM
[23]
  Stability: Stable
[24]
  Stability: Unstable
Cell membrane [25]
  Activity: Active
[26]
  Stability: Stable
Candida albicans [27]
  MIC95: 8 µM (≈ 20.4 µg/mL)
Candida albicans [28]
  Activity: Active; Only Limited Number Of Pits Appeared
Candida albicans [29]
  MIC95: 8 µM
HEK293
  Activity: Toxic
Candida albicans [30]
  MIC95: 32 µM
Candida albicans [31]
  MIC95: 8 µM (≈ 20.4 µg/mL)
[32]
  hemolysis at 1 h, 512 µM: 8.58%
[33]
  Stability: Stable
Candida albicans [34]
  Activity: Dose-dependent-effect
Candida albicans [35]
  MIC95: 4 µM (≈ 10.2 µg/mL)
[36]
  Stability: Stable
Candida albicans [37]
  MIC95: 8 µM
Candida albicans [38]
  MIC95: 4 µM (≈ 10.2 µg/mL)

## OC(Cn1cncn1)(Cn1cncn1)c1ccc(F)cc1F [FLUCONAZOLE]
Candida albicans [39]
  fold change (FC): 64
Candida albicans [2]
  MIC95: > 64 µM
Candida albicans [5]
  MIC95: 2 µM (≈ 0.613 µg/mL)
Candida albicans [6]
  MIC95: 8 µM (≈ 2.45 µg/mL)
Candida tropicalis
  MIC95: 1 µM (≈ 0.306 µg/mL)
Candida albicans [10]
  MIC95: 2 µM (≈ 0.613 µg/mL)
Candida parapsilosis
  MIC95: 4 µM (≈ 1.23 µg/mL)
Candida albicans [14]
  MIC95: 4 µM (≈ 1.23 µg/mL)
Candida albicans [19]
  MIC95: > 64 µM
Candida albicans [27]
  MIC95: 4 µM (≈ 1.23 µg/mL)
Candida albicans [40]
  fold change (FC): 128
Candida albicans [31]
  MIC95: 2 µM (≈ 0.613 µg/mL)
Candida albicans [35]
  MIC95: 1 µM (≈ 0.306 µg/mL)
Candida albicans [38]
  MIC95: 2 µM (≈ 0.613 µg/mL)
